Active and inactive are the calls of the source. Rule as the data show it, for most assays here: actives have a measured Kd and inactives only a lower limit.
Key:
[1] = target: Cyclin-dependent kinase 1 (Homo sapiens, UniProt P06493)
[2] = target: Rho-associated protein kinase 2 (Homo sapiens, UniProt O75116)
[3] = target: Serine/threonine-protein kinase/endoribonuclease IRE1 (Homo sapiens, UniProt O75460)
[4] = target: Serine/threonine-protein kinase SIK3 (Homo sapiens, UniProt Q9Y2K2)
[5] = target: Dual specificity tyrosine-phosphorylation-regulated kinase 1A (Homo sapiens, UniProt Q13627)
Ephrin type-B receptor 6 = target: T1, Ephrin type-B receptor 6 (Homo sapiens, UniProt O15197)
T1 sequence (O15197 whole entry): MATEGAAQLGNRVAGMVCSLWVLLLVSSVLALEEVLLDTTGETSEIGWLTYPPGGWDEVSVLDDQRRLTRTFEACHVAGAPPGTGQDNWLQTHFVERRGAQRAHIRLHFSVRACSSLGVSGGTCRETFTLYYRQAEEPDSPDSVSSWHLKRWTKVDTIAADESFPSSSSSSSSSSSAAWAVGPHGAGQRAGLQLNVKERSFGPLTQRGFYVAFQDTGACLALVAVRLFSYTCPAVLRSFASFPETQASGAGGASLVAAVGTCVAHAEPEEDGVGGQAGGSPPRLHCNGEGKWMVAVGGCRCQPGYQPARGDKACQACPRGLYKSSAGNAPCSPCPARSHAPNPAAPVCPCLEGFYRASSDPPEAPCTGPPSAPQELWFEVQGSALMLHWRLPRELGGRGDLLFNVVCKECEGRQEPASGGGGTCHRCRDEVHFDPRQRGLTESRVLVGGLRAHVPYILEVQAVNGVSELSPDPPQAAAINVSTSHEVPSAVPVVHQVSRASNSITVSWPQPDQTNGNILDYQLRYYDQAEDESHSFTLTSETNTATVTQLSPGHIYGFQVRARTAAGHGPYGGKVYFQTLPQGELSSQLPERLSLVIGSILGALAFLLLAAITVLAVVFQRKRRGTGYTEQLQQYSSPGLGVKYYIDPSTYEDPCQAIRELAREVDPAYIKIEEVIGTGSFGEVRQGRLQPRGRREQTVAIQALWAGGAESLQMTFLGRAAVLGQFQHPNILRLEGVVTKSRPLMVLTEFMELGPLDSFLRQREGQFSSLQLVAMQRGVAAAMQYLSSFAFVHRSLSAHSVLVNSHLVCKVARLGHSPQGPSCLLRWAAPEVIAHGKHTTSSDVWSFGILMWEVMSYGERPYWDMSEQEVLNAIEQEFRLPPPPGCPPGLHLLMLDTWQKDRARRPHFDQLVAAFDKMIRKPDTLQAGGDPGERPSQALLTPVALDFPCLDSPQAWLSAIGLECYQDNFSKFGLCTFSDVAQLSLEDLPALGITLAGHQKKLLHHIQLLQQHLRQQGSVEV

[6] = target: Ribosomal protein S6 kinase alpha-1 (Homo sapiens, UniProt Q15418)
Actin-related protein 2 = Actin-related protein 2 (Homo sapiens, UniProt P61160)
[7] = target: T2, Serine/threonine-protein kinase TAO2 (Homo sapiens, UniProt Q9UL54)
T2 sequence (Q9UL54 whole entry): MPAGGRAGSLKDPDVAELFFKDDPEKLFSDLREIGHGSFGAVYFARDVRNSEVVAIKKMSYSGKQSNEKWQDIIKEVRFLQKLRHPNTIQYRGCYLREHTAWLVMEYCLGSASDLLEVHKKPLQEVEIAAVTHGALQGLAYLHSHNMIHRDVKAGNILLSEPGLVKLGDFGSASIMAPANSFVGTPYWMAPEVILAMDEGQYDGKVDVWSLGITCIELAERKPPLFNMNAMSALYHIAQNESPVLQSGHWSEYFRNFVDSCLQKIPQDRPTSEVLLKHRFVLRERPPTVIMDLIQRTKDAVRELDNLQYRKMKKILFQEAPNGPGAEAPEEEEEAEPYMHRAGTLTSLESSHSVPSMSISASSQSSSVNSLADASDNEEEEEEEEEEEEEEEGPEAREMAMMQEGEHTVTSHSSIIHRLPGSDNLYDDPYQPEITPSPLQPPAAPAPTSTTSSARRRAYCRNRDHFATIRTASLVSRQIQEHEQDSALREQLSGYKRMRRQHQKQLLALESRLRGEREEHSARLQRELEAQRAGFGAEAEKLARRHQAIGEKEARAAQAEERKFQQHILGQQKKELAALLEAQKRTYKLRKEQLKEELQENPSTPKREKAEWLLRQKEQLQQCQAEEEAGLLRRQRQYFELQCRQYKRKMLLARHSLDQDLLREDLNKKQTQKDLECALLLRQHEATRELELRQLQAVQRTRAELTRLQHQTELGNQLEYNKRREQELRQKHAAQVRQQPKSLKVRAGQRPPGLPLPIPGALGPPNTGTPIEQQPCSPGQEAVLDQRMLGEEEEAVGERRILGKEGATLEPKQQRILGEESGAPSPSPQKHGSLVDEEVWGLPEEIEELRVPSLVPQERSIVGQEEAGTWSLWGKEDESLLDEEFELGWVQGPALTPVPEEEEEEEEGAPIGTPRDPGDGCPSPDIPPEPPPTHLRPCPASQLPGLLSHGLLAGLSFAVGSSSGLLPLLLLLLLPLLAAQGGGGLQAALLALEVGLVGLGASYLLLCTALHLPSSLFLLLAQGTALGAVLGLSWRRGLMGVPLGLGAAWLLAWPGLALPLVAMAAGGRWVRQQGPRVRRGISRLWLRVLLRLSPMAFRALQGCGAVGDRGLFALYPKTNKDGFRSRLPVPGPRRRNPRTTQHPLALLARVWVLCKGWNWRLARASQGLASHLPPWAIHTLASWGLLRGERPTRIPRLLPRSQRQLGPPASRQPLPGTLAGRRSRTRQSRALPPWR
Also: in the data inactive means no Kd found up to 30 µM.

Chain of Serine/threonine-protein kinase/endoribonuclease IRE1 (O75460 whole entry): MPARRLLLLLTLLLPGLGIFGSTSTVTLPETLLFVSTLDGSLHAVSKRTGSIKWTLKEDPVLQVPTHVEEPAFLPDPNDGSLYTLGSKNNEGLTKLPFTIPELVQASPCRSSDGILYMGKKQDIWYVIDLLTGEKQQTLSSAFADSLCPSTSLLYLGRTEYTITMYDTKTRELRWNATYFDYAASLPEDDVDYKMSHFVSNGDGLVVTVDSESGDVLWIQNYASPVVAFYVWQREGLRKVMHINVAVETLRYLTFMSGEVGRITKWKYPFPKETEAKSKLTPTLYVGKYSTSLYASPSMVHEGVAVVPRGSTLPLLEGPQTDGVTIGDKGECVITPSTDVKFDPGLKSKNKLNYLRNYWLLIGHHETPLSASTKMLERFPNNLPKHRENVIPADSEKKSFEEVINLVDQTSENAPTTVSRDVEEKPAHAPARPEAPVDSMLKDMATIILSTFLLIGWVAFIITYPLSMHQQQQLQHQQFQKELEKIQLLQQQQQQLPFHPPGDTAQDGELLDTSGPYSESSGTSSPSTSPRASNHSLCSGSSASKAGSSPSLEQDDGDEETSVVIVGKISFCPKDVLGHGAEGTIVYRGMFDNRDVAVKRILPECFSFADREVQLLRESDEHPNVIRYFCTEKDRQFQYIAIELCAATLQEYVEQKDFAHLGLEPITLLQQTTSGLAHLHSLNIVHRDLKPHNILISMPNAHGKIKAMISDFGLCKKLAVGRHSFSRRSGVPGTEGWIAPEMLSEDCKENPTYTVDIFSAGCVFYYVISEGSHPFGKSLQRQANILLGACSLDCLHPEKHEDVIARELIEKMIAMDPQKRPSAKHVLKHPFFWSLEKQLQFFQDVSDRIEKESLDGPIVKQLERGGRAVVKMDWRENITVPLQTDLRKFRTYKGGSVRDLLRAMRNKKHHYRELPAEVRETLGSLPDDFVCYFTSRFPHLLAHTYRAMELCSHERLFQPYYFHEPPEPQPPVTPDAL
Chain of Cyclin-dependent kinase 1 (P06493 whole entry): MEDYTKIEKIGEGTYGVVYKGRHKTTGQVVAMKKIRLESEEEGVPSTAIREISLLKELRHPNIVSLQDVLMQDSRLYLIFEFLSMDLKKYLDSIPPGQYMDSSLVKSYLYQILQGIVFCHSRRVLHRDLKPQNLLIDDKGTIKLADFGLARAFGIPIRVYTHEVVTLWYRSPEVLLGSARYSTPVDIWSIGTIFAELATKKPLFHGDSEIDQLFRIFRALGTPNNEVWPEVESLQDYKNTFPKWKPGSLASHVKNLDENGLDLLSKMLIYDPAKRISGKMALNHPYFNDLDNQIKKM
Chain of Serine/threonine-protein kinase SIK3 (Q9Y2K2 whole entry): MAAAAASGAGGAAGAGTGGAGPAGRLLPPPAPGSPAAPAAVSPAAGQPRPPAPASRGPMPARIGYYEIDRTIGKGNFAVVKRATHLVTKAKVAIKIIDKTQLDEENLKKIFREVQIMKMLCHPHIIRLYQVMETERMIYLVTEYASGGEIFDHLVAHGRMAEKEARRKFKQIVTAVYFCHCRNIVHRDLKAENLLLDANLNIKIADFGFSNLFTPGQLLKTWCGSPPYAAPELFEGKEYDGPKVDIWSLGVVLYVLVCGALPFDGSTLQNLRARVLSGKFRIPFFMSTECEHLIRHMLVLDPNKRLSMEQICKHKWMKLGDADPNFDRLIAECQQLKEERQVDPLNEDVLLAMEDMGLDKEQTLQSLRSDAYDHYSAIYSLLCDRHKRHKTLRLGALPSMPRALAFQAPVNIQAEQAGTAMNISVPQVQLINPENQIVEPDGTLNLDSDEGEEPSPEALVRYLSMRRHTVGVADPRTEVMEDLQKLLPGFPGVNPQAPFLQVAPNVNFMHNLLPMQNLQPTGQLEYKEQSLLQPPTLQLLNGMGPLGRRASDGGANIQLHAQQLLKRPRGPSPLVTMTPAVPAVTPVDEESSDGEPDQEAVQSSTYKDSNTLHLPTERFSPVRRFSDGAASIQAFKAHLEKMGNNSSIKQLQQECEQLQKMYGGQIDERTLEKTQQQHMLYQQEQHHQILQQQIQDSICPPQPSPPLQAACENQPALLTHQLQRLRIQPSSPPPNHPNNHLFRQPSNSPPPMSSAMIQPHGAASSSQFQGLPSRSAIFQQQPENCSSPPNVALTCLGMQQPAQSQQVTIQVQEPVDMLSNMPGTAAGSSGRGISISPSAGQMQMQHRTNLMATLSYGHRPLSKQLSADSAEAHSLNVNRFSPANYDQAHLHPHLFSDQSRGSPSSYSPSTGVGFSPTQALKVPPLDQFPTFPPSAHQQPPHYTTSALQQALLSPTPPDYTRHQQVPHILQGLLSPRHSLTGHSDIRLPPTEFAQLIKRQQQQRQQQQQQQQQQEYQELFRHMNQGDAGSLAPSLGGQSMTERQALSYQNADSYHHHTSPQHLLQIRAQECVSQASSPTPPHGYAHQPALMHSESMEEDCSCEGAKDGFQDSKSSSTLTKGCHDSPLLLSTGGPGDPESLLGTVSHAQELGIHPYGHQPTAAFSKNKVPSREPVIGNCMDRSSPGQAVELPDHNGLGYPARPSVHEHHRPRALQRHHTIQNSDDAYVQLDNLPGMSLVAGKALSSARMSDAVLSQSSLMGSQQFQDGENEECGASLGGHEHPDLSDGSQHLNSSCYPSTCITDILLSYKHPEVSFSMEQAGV
Chain of Rho-associated protein kinase 2 (O75116 whole entry): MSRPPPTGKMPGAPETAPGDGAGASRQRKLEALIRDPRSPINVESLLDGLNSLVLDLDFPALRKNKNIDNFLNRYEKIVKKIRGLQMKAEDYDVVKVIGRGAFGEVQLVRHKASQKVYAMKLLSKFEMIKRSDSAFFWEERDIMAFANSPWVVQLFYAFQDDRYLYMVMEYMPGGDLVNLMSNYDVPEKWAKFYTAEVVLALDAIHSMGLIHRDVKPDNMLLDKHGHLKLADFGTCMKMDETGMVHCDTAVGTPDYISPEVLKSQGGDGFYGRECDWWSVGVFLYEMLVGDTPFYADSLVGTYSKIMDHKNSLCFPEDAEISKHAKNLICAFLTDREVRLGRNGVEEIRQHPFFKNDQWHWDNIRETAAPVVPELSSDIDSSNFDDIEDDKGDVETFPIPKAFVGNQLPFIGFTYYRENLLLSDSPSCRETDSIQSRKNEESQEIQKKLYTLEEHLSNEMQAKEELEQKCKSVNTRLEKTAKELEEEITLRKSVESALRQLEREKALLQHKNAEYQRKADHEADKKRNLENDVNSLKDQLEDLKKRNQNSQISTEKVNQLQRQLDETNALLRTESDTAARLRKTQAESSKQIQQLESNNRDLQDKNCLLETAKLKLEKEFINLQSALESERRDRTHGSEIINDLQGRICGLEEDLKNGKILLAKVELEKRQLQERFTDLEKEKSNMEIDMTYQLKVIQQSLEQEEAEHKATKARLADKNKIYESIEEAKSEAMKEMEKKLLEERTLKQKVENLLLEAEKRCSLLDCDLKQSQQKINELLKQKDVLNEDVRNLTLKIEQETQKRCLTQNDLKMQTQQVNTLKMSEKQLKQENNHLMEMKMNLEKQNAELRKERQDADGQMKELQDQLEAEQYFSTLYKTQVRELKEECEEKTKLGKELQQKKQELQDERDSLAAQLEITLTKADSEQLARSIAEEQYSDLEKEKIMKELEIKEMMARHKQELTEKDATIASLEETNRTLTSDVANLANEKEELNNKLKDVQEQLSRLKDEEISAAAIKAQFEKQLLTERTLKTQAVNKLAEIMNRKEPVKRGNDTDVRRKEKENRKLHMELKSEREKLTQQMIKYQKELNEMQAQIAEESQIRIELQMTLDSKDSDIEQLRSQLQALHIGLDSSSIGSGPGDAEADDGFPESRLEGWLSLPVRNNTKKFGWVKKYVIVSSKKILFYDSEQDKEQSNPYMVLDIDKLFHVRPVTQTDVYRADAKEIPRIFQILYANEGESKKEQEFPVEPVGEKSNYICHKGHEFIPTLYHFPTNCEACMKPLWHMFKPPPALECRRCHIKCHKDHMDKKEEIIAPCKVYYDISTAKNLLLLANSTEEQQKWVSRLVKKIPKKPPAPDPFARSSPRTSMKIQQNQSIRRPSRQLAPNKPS
Chain of Ribosomal protein S6 kinase alpha-1 (Q15418 whole entry): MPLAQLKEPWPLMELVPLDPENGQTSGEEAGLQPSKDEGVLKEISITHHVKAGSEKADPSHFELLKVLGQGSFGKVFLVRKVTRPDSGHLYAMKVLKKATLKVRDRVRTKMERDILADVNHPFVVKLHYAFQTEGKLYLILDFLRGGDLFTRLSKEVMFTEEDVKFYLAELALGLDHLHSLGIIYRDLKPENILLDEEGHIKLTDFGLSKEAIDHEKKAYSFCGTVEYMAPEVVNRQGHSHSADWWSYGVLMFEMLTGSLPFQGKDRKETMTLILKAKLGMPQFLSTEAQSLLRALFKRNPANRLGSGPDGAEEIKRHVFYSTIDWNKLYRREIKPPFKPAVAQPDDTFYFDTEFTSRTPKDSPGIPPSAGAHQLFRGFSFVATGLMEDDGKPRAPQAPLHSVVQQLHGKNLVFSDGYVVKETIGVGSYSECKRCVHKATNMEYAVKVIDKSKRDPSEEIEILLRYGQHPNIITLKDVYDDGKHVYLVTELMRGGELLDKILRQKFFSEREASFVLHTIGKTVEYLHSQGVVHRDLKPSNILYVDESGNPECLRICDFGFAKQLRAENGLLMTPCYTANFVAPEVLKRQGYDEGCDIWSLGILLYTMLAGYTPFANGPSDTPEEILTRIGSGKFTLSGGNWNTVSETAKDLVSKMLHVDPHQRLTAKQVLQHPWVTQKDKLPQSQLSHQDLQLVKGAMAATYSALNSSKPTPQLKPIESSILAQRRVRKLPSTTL

| Kd [1] | Kd [2] | Kd [3] | Kd [4] | Kd [5] | Kd (Ephrin type-B receptor 6) | Kd [6] | Kd (Actin-related protein 2) | Kd [7] | Structure (SMILES) |
| --- | --- | --- | --- | --- | --- | --- | --- | --- | --- |
| > 30 µM (inactive) | > 30 µM (inactive) | > 30 µM (inactive) | > 30 µM (inactive) | > 30 µM (inactive) | > 30 µM (inactive) | > 30 µM (inactive) | > 30 µM (inactive) | > 30 µM (inactive) | COc1cc(Nc2ncc(F)c(Nc3ccc4c(n3)N(COP(=O)(O)O)C(=O)C(C)(C)O4)n2)cc(OC)c1OC [FOSTAMATINIB] |
| > 30 µM (inactive) | > 30 µM (inactive) | > 30 µM (inactive) | > 30 µM (inactive) | > 30 µM (inactive) | > 30 µM (inactive) | > 30 µM (inactive) | > 30 µM (inactive) | > 30 µM (inactive) | C#Cc1cccc(Nc2ncnc3cc4c(cc23)OCCOCCOCCO4)c1 [ICOTINIB] |
| > 30 µM (inactive) | > 30 µM (inactive) | > 30 µM (inactive) | > 30 µM (inactive) | > 30 µM (inactive) | > 30 µM (inactive) | > 30 µM (inactive) | > 30 µM (inactive) | > 30 µM (inactive) | Cc1ccc(C(=O)Nc2ccc(Oc3cc4cnn(C)c4cc3-c3cn[nH]c3)c(F)c2)c(=O)n1-c1ccc(F)cc1 [MERESTINIB] |
| > 30 µM (inactive) | > 30 µM (inactive) | > 30 µM (inactive) | > 30 µM (inactive) | > 30 µM (inactive) | > 30 µM (inactive) | > 30 µM (inactive) | > 30 µM (inactive) | > 30 µM (inactive) | O=C(NOC[C@H](O)CO)c1ccc(F)c(F)c1Nc1ccc(I)cc1F [MIRDAMETINIB] |
| > 30 µM (inactive) | > 30 µM (inactive) | > 30 µM (inactive) | > 30 µM (inactive) | > 30 µM (inactive) | > 30 µM (inactive) | > 30 µM (inactive) | > 30 µM (inactive) | > 30 µM (inactive) | COc1cccc2cc(-c3nc([C@H]4CC[C@H](C(=O)O)CC4)n4ncnc(N)c34)[nH]c12 [OSI-027] |
| > 30 µM (inactive) | > 30 µM (inactive) | > 30 µM (inactive) | > 30 µM (inactive) | > 30 µM (inactive) | > 30 µM (inactive) | > 30 µM (inactive) | > 30 µM (inactive) | > 30 µM (inactive) | O=C(Nc1ccc(OC(F)(F)F)cc1)c1sccc1NCc1ccnc2ccccc12 [OSI-930] |
| > 30 µM (inactive) | > 30 µM (inactive) | > 30 µM (inactive) | > 30 µM (inactive) | > 30 µM (inactive) | > 30 µM (inactive) | > 30 µM (inactive) | > 30 µM (inactive) | > 30 µM (inactive) | FC(F)(F)c1ccc(CNc2ccc(Cc3c[nH]c4ncc(Cl)cc34)cn2)cn1 [PEXIDARTINIB] |
| > 30 µM (inactive) | > 30 µM (inactive) | > 30 µM (inactive) | > 30 µM (inactive) | > 30 µM (inactive) | > 30 µM (inactive) | > 30 µM (inactive) | > 30 µM (inactive) | > 30 µM (inactive) | O=C(NC[C@H](O)CO)c1ccncc1Nc1ccc(I)cc1F [PIMASERTIB] |
| > 30 µM (inactive) | > 30 µM (inactive) | > 30 µM (inactive) | > 30 µM (inactive) | > 30 µM (inactive) | > 30 µM (inactive) | > 30 µM (inactive) | > 30 µM (inactive) | > 30 µM (inactive) | C=CC(=O)Nc1cccc(Nc2nc(Nc3ccc(N4CCN(C(C)=O)CC4)cc3OC)ncc2C(F)(F)F)c1 [ROCILETINIB] |
| > 30 µM (inactive) | > 30 µM (inactive) | > 30 µM (inactive) | > 30 µM (inactive) | > 30 µM (inactive) | 1.85 µM | > 30 µM (inactive) | > 30 µM (inactive) | > 30 µM (inactive) | CC(C)(O)CC(=O)NCCn1ccc2ncnc(Nc3ccc(Oc4cccc(C(F)(F)F)c4)c(Cl)c3)c21 [TAK-285] |
| > 30 µM (inactive) | > 30 µM (inactive) | > 30 µM (inactive) | > 30 µM (inactive) | > 30 µM (inactive) | > 30 µM (inactive) | > 30 µM (inactive) | > 30 µM (inactive) | > 30 µM (inactive) | Cc1cc(C(=O)Nc2cc(Oc3ccc4nc(NC(=O)C5CC5)cn4n3)ccc2C)n(C)n1 [TAK-593] |
| > 30 µM (inactive) | > 30 µM (inactive) | 1.36 µM (active) | 2.98 µM (active) | > 30 µM (inactive) | > 30 µM (inactive) | > 30 µM (inactive) | > 30 µM (inactive) | > 30 µM (inactive) | O[C@H]1CC[C@H](Nc2ncc3nc(Nc4c(F)cc(F)cc4F)n([C@H]4CCOC4)c3n2)CC1 [TANZISERTIB] |

| Structure (SMILES) | Kd [1] | Kd [2] | Kd [3] | Kd [4] | Kd [5] | Kd (Ephrin type-B receptor 6) | Kd [6] | Kd (Actin-related protein 2) | Kd [7] |
| --- | --- | --- | --- | --- | --- | --- | --- | --- | --- |
| CCc1nc(C(N)=O)c(Nc2ccc(N3CCC(N4CCN(C)CC4)CC3)c(OC)c2)nc1NC1CCOCC1 [GILTERITINIB] | > 30 µM (inactive) | > 30 µM (inactive) | > 30 µM (inactive) | > 30 µM (inactive) | > 30 µM (inactive) | 0.241 µM | 3.44 µM (active) | > 30 µM (inactive) | 2.09 µM (active) |
| Cc1c(Cn2c(C)nc3c(C(=O)O)cc(N4CCOCC4)cc32)cccc1C(F)(F)F [GSK-2636771] | > 30 µM (inactive) | > 30 µM (inactive) | > 30 µM (inactive) | > 30 µM (inactive) | > 30 µM (inactive) | > 30 µM (inactive) | > 30 µM (inactive) | > 30 µM (inactive) | > 30 µM (inactive) |
| C=CC(=O)Nc1cc(Nc2nccc(-c3cn(C)c4ccccc34)n2)c(OC)cc1N(C)CCN(C)C [OSIMERTINIB] | > 30 µM (inactive) | > 30 µM (inactive) | > 30 µM (inactive) | > 30 µM (inactive) | > 30 µM (inactive) | > 30 µM (inactive) | > 30 µM (inactive) | > 30 µM (inactive) | > 30 µM (inactive) |
| CC(C)CC(=O)Nc1[nH]nc2c1CN(C(=O)C1CCN(C)CC1)C2(C)C [PHA-793887] | 2.56 µM (active) | > 30 µM (inactive) | > 30 µM (inactive) | > 30 µM (inactive) | > 30 µM (inactive) | > 30 µM (inactive) | > 30 µM (inactive) | > 30 µM (inactive) | > 30 µM (inactive) |
